Assays:
[1] = target: T1, Dopamine D4.4 (Homo sapiens, UniProt P21917); experiment: Radioligand binding, Dopamine D4.4 ([3H]Spiperone)
T1 construct: host or cells: CHO-K1 cells
T1 sequence (P21917 1-419): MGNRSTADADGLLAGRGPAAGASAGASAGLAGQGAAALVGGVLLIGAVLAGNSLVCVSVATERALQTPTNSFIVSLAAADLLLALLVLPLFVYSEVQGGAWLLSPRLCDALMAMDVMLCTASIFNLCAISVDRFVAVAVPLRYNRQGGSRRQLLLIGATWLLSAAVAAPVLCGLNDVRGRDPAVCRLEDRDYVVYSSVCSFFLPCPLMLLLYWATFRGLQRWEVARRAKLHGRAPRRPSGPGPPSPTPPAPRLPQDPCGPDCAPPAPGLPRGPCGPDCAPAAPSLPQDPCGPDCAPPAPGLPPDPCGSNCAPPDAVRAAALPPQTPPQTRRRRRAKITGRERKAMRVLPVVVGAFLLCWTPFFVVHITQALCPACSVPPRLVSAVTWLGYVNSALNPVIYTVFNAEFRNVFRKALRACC
Description: (§1) The assays utilized human neuroreceptors and were performed under the experimental parameters set forth in Table 2 using standard techniques.
(§2) For Table 3, IC50 values were determined by non-linear, least squares regression analysis using Data Analysis Toolbox™ (MDL Information Systems, San Leandro, Calif., USA). Inhibition constants (KI) were calculated using the equation of Cheng and Prusoff (Cheng, Y., et al. Biochem. Pharmacol. 22:3099-3108, 1973) using the observed IC50 of the tested compound, the concentration of radioligand employed in the assay, and the values for the KD of the ligand. The Hill coefficient (nH), defining the slope of the competitive binding curve, was calculated using the Data Analysis Toolbox™. Biochemical assay results are presented as the percent inhibition of specific binding or activity unless indicated otherwise. The experiments summarized in Table 3 utilized human dopamine D1, D2 s, D21, D3, D4.2, D4.4, serotonin 5HT1A, 5HT2A, 5HT2C, 5HT6, 5HT7, dopamine transporter (DAT), serotonin transporter (SERT) and the norepinephrine transporter (NET), as indicated in Table 3.

[2] = target: T2, Dopamine transporter (DAT) (Homo sapiens, UniProt Q01959); experiment: Radioligand binding, Dopamine transporter (DAT) ([125I]RTI-55)
T2 construct: host or cells: CHO-K1 cells
T2 sequence (Q01959 whole entry): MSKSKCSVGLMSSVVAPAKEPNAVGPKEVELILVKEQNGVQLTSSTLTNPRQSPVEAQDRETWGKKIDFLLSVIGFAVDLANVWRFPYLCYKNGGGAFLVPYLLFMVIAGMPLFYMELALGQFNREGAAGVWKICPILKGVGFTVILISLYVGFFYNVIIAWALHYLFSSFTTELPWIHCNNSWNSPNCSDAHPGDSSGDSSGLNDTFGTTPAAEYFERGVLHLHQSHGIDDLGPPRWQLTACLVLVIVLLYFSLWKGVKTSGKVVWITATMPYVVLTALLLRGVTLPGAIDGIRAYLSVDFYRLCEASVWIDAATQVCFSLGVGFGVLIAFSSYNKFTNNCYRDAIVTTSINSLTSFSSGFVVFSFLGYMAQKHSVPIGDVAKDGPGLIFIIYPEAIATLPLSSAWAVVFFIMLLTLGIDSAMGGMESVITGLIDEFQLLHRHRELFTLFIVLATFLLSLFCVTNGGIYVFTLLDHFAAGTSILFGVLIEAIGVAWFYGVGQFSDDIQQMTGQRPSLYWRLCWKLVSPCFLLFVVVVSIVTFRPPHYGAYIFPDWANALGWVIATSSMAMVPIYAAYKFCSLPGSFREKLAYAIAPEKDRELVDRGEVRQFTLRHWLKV
Description: as §1, §2

[3] = target: T3, Dopamine D4.2 (Homo sapiens, UniProt P21917, DEL265-296); experiment: Radioligand binding, Dopamine D4.2 ([3H]Spiperone)
T3 construct: host or cells: CHO-K1 cells
T3 sequence (P21917 with tags, fused parts or gaps DEL265-296): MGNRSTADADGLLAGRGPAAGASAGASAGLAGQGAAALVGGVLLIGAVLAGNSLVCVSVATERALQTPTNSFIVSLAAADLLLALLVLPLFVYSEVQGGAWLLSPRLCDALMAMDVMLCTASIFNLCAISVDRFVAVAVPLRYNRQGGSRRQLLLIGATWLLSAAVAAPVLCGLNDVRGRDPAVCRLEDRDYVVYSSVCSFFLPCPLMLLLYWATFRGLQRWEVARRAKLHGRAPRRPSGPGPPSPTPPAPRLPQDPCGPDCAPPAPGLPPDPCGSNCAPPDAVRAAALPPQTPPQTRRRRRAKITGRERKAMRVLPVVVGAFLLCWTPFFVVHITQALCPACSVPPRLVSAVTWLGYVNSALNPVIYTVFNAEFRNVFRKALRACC
Description: as §1, §2

[4] = target: T4, Serotonin 5HT6 (Homo sapiens, UniProt P50406); experiment: Radioligand binding, Serotonin 5HT6 ([3H]LSD)
T4 construct: host or cells: HeLa cells
T4 sequence (P50406 whole entry): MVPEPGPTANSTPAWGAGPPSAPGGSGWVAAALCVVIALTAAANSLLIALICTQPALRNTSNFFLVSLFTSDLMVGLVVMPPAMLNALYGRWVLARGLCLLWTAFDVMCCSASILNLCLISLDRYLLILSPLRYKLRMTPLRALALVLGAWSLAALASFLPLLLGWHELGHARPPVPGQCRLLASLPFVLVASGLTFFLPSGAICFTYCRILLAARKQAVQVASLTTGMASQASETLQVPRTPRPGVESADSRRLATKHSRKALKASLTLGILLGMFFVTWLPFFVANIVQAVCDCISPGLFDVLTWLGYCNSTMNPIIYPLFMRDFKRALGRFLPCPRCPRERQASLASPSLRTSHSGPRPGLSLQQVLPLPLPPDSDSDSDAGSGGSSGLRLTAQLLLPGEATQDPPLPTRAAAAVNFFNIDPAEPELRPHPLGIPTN
Description: as §1, §2

[5] = target: T5, Serotonin 5HT2C (Homo sapiens, UniProt P28335); experiment: Radioligand binding, Serotonin 5HT2C ([3H]Mesulergine)
T5 construct: host or cells: CHO-K1 cells
T5 sequence (P28335 33-458): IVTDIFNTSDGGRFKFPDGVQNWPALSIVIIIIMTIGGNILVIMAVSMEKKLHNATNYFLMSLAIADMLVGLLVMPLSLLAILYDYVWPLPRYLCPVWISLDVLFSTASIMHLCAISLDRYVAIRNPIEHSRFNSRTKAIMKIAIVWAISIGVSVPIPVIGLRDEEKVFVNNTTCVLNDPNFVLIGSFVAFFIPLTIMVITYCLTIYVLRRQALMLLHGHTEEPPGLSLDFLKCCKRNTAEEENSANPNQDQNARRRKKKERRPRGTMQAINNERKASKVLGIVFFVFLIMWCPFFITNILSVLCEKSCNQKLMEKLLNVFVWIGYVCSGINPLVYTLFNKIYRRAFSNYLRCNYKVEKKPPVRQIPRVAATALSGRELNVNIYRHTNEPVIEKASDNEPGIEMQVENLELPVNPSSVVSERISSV
Description: as §1, §2

[6] = tested on: ckr mouse; experiment: Motor activity in chakragati (ckr) mice; format: in vivo; conditions: 10 mg/kg intraperitoneal, 20 minutes after injection, monitored 15 minutes
Description: The mouse also presents lateral ventricular enlargement, which may mirror neuropathological observations in shizophrenia. […] We have further validated this model by testing risperidone, clozapine, haloperidol and pimozide in the ckr mouse. The behavioral output was assayed by measuring the rate of hyperactivity and circling after administration.
A stock solution of compound 2 was dissolved in DMSO, and then diluted to 10 mg/10 ml with distilled water such that the final concentration of DMSO was 0.5%. Each animal received 10 mg/kg of the test drug in a volume of 0.1 ml per 10 g. Additional drugs were tested in parallel in a similar manner.
Twenty ckr mice (male and female, 3 months old) were randomly assigned to receive the test drug (compound 2) or 0.5% DMSO vehicle. The drug was tested in 5 mice. Each treatment was separated by a minimum washout period of 3 days. On the day of testing, mice were brought into the behavioral test room and allowed to acclimatize for at least 1 hour. They then received intraperitoneal injections of the 0.1 ml/10 g (10 mg/kg) of the test drug solution or vehicle. They were returned to their cage and 20 minutes later they were placed in a 190 mm diameter, 300 mm deep circular recording chamber. […] The mice were monitored with an overhead video camera for 15 minutes. […] The total distance moved, the velocity of movement, and the time spent moving were calculated. […]

COC(=O)[C@@H](c1ccc(-c2ccccc2)cc1)[C@H]1C=CCCN1 [Compound 2]
IC50 [1]: 66.7 µM
Ki [1]: 18.5 µM
nH ([1]; Dopamine D4.4, Hill coefficient): 1.01
Percentage Inhibition ([1]; Dopamine D4.4, concentration 100 (unit not given)): 62%
IC50 [2]: 13.8 µM
Ki [2]: 11 µM
inhibition at 10 µM ([2]; Dopamine transporter (DAT), 10 μM, read-out: Percentage Inhibition): 33%
inhibition at 100 µM ([2]; Dopamine transporter (DAT), 100 μM, read-out: Percentage Inhibition): 74%
nH ([2]; Dopamine transporter (DAT), Hill coefficient): 1.3
IC50 [3]: 50.5 µM
Ki [3]: 19.7 µM
nH ([3]; Dopamine D4.2, Hill coefficient): 1.76
Percentage Inhibition ([3]; Dopamine D4.2, concentration 100 (unit not given)): 79%
IC50 [4]: 94.5 µM
Ki [4]: 43.9 µM
inhibition at 100 µM ([4]; Serotonin 5HT6, 100 μM, read-out: Percentage Inhibition): 53%
nH ([4]; Serotonin 5HT6, Hill coefficient): 1.12
IC50 [5]: 13.4 µM
Ki [5]: 7.03 µM
inhibition at 10 µM ([5]; Serotonin 5HT2C, 10 μM, read-out: Percentage Inhibition): 52%
inhibition at 30 µM ([5]; Serotonin 5HT2C, 30 μM, read-out: Percentage Inhibition): 70%
nH ([5]; Serotonin 5HT2C, Hill coefficient): 1.12
time spent moving [6]: significantly decreased the time spent moving
velocity of movement [6]: trend towards decreased velocity

— patent publication US7851487B2, “Use of tetrahydropyridines in the treatment of central nervous system disorders” (The Research Foundation of State University of New York, priority 2006, dated 2010)
